{
  "source": "PubChem BioAssay (NCI)",
  "assay_in_all_cases": "NCI-60 cell line screen, 48 h",
  "key": {"[1]": {"tested_on": "A498 renal"}, "[2]": {"tested_on": "RXF 393 renal"}, "[3]": {"tested_on": "NCI-H23 lung"}, "[4]": {"tested_on": "SK-MEL-5 melanoma"}, "[5]": {"tested_on": "SK-MEL-2 melanoma"}, "[6]": {"tested_on": "M14 melanoma"}, "[7]": {"tested_on": "HS 578T breast"}, "[8]": {"tested_on": "UO-31 renal"}, "[9]": {"tested_on": "U251 CNS"}, "[10]": {"tested_on": "A549 NSCLC"}},
  "note": "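Exposure lasted 48 hours, with cells grown in 96-well plates and compounds tested at five concentrations. GI50 is the concentration that inhibits growth by half. TGI denotes the concentration required for complete inhibition of growth.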",
  "data": [
    {"smiles": "CN(C)C(=S)SCc1ccccc1", "values": [
      {"measurement": "TGI", "setting": "[1]", "result": "> 100", "unit": "µM"},
      {"measurement": "TGI", "setting": "[2]", "result": "> 100", "unit": "µM"},
      {"measurement": "TGI", "setting": "[3]", "result": "> 100", "unit": "µM"},
      {"measurement": "TGI", "setting": "[4]", "result": "> 100", "unit": "µM"},
      {"measurement": "TGI", "setting": "[5]", "result": "> 100", "unit": "µM"},
      {"measurement": "TGI", "setting": "[6]", "result": "> 100", "unit": "µM"},
      {"measurement": "TGI", "setting": "[7]", "result": "> 100", "unit": "µM"},
      {"measurement": "TGI", "setting": "[8]", "result": "> 100", "unit": "µM"},
      {"measurement": "TGI", "setting": "[9]", "result": "> 100", "unit": "µM"},
      {"measurement": "TGI", "setting": "[10]", "result": "> 100", "unit": "µM"}
    ]},
    {"smiles": "C/C(=C\\c1ccc2c(c1)OCO2)[N+](=O)[O-]", "values": [
      {"measurement": "TGI", "setting": "[1]", "result": 24.3, "unit": "µM"},
      {"measurement": "TGI", "setting": "[3]", "result": 7.54, "unit": "µM"},
      {"measurement": "TGI", "setting": "[4]", "result": 3.93, "unit": "µM"},
      {"measurement": "TGI", "setting": "[5]", "result": 5.49, "unit": "µM"},
      {"measurement": "TGI", "setting": "[6]", "result": 42.5, "unit": "µM"},
      {"measurement": "TGI", "setting": "[7]", "result": 45.8, "unit": "µM"},
      {"measurement": "TGI", "setting": "[10]", "result": "> 100", "unit": "µM"}
    ]},
    {"smiles": "C(=N/Nc1ccccn1)/c1cccnc1", "values": [
      {"measurement": "TGI", "setting": "[1]", "result": "> 100", "unit": "µM"},
      {"measurement": "TGI", "setting": "[2]", "result": "> 100", "unit": "µM"},
      {"measurement": "TGI", "setting": "[3]", "result": "> 100", "unit": "µM"},
      {"measurement": "TGI", "setting": "[4]", "result": "> 100", "unit": "µM"},
      {"measurement": "TGI", "setting": "[5]", "result": "> 100", "unit": "µM"},
      {"measurement": "TGI", "setting": "[6]", "result": "> 100", "unit": "µM"},
      {"measurement": "TGI", "setting": "[7]", "result": "> 100", "unit": "µM"},
      {"measurement": "TGI", "setting": "[8]", "result": "> 100", "unit": "µM"},
      {"measurement": "TGI", "setting": "[9]", "result": "> 100", "unit": "µM"},
      {"measurement": "TGI", "setting": "[10]", "result": "> 100", "unit": "µM"}
    ]},
    {"smiles": "CCOC(=O)c1cc(Cl)ccc1OC(N)=O", "values": [
      {"measurement": "TGI", "setting": "[1]", "result": "> 100", "unit": "µM"},
      {"measurement": "TGI", "setting": "[2]", "result": "> 100", "unit": "µM"},
      {"measurement": "TGI", "setting": "[3]", "result": "> 100", "unit": "µM"},
      {"measurement": "TGI", "setting": "[4]", "result": "> 100", "unit": "µM"},
      {"measurement": "TGI", "setting": "[5]", "result": "> 100", "unit": "µM"},
      {"measurement": "TGI", "setting": "[8]", "result": "> 100", "unit": "µM"},
      {"measurement": "TGI", "setting": "[9]", "result": "> 100", "unit": "µM"},
      {"measurement": "TGI", "setting": "[10]", "result": "> 100", "unit": "µM"}
    ]},
    {"smiles": "Nc1nc(Cl)nc2c1ncn2C1CCC(CO)O1", "note": "(configuration not stated)", "values": [
      {"measurement": "TGI", "setting": "[1]", "result": "> 100", "unit": "µM"},
      {"measurement": "TGI", "setting": "[2]", "result": "> 100", "unit": "µM"},
      {"measurement": "TGI", "setting": "[3]", "result": "> 100", "unit": "µM"},
      {"measurement": "TGI", "setting": "[4]", "result": "> 100", "unit": "µM"},
      {"measurement": "TGI", "setting": "[5]", "result": "> 100", "unit": "µM"},
      {"measurement": "TGI", "setting": "[6]", "result": "> 100", "unit": "µM"},
      {"measurement": "TGI", "setting": "[7]", "result": "> 100", "unit": "µM"},
      {"measurement": "TGI", "setting": "[8]", "result": "> 100", "unit": "µM"},
      {"measurement": "TGI", "setting": "[9]", "result": "> 100", "unit": "µM"}
    ]},
    {"smiles": "Clc1ccc(CSCc2ccc(Cl)cc2Cl)c(Cl)c1", "values": [
      {"measurement": "TGI", "setting": "[1]", "result": "> 100", "unit": "µM"},
      {"measurement": "TGI", "setting": "[2]", "result": 94.2, "unit": "µM"},
      {"measurement": "TGI", "setting": "[3]", "result": "> 100", "unit": "µM"},
      {"measurement": "TGI", "setting": "[4]", "result": 97.9, "unit": "µM"},
      {"measurement": "TGI", "setting": "[5]", "result": 51.3, "unit": "µM"},
      {"measurement": "TGI", "setting": "[6]", "result": "> 100", "unit": "µM"},
      {"measurement": "TGI", "setting": "[7]", "result": "> 100", "unit": "µM"},
      {"measurement": "TGI", "setting": "[8]", "result": "> 100", "unit": "µM"},
      {"measurement": "TGI", "setting": "[9]", "result": "> 100", "unit": "µM"},
      {"measurement": "TGI", "setting": "[10]", "result": "> 100", "unit": "µM"}
    ]},
    {"smiles": "N#CC(C#N)=Cc1ccc(-c2ccc(-c3nc4ccccc4s3)cc2)s1", "values": [
      {"measurement": "GI50", "setting": "[1]", "result": 18.7, "unit": "µM"},
      {"measurement": "TGI", "setting": "[1]", "result": 41.1, "unit": "µM"},
      {"measurement": "GI50", "setting": "[2]", "result": 40.5, "unit": "µM"},
      {"measurement": "TGI", "setting": "[2]", "result": "> 100", "unit": "µM"},
      {"measurement": "GI50", "setting": "[3]", "result": 18.1, "unit": "µM"},
      {"measurement": "TGI", "setting": "[3]", "result": 52.9, "unit": "µM"},
      {"measurement": "GI50", "setting": "[4]", "result": 11.8, "unit": "µM"},
      {"measurement": "TGI", "setting": "[4]", "result": 31.7, "unit": "µM"},
      {"measurement": "GI50", "setting": "[5]", "result": 33.1, "unit": "µM"},
      {"measurement": "TGI", "setting": "[5]", "result": "> 100", "unit": "µM"},
      {"measurement": "GI50", "setting": "[6]", "result": 29.3, "unit": "µM"},
      {"measurement": "TGI", "setting": "[6]", "result": 96.2, "unit": "µM"},
      {"measurement": "GI50", "setting": "[8]", "result": 13.9, "unit": "µM"},
      {"measurement": "TGI", "setting": "[8]", "result": 30.2, "unit": "µM"},
      {"measurement": "GI50", "setting": "[9]", "result": 14.9, "unit": "µM"},
      {"measurement": "TGI", "setting": "[9]", "result": 31.9, "unit": "µM"},
      {"measurement": "GI50", "setting": "[10]", "result": 13.8, "unit": "µM"},
      {"measurement": "TGI", "setting": "[10]", "result": "> 100", "unit": "µM"}
    ]},
    {"smiles": "CC(C)(C)C1=NN=C2c3ccccc3C(=O)C21", "note": "(configuration not stated)", "values": [
      {"measurement": "TGI", "setting": "[1]", "result": 99.5, "unit": "µM"},
      {"measurement": "TGI", "setting": "[2]", "result": "> 100", "unit": "µM"},
      {"measurement": "TGI", "setting": "[3]", "result": "> 100", "unit": "µM"},
      {"measurement": "TGI", "setting": "[4]", "result": 54.3, "unit": "µM"},
      {"measurement": "TGI", "setting": "[5]", "result": "> 100", "unit": "µM"},
      {"measurement": "TGI", "setting": "[6]", "result": "> 100", "unit": "µM"},
      {"measurement": "TGI", "setting": "[7]", "result": 82.1, "unit": "µM"},
      {"measurement": "TGI", "setting": "[8]", "result": "> 100", "unit": "µM"},
      {"measurement": "TGI", "setting": "[9]", "result": "> 100", "unit": "µM"},
      {"measurement": "TGI", "setting": "[10]", "result": "> 100", "unit": "µM"}
    ]}
  ]
}
